Reference: the NIST ThermoML archive (doi:10.1016/j.jct.2013.11.036)
± gives the expanded uncertainty stated by the source.

Assay: mn = molality of the nth substance listed, in mol/kg
Details: Liquid, Constant-volume piezometry

CCCO [propan-1-ol] + O
mass density (383.2 K, 3256 kPa, m1 = 7.407): 879.4 ± 1.1 kg/m3 | mass density (383.2 K, 6865 kPa, m1 = 7.407): 881.7 ± 1.1 kg/m3 | mass density (383.2 K, 12651 kPa, m1 = 7.407): 885.3 ± 1.1 kg/m3 | mass density (393.03 K, 3256 kPa, m1 = 14.38): 830.8 ± 1 kg/m3 | mass density (393.03 K, 6453 kPa, m1 = 14.38): 833.7 ± 1 kg/m3 | mass density (393.03 K, 9885 kPa, m1 = 14.38): 836.6 ± 1 kg/m3 | mass density (393.03 K, 13239 kPa, m1 = 14.38): 838.9 ± 1 kg/m3 | mass density (394.81 K, 3472 kPa, m1 = 2.531): 911.1 ± 1.1 kg/m3 | mass density (394.81 K, 7845 kPa, m1 = 2.531): 913.4 ± 1.1 kg/m3 | mass density (394.81 K, 11768 kPa, m1 = 2.531): 915.6 ± 1.1 kg/m3 | mass density (398.15 K, 5000 kPa, m1 = 0.869): 932 ± 1.1 kg/m3 | mass density (398.15 K, 5000 kPa, m1 = 2.465): 912.7 ± 1.1 kg/m3 | mass density (398.15 K, 10000 kPa, m1 = 0.869): 934.6 ± 1.1 kg/m3 | mass density (398.15 K, 10000 kPa, m1 = 2.465): 915.5 ± 1.1 kg/m3 | mass density (398.15 K, 20000 kPa, m1 = 0.869): 939.5 ± 1.2 kg/m3 | mass density (398.15 K, 20000 kPa, m1 = 2.465): 920.8 ± 1.1 kg/m3 | mass density (398.15 K, 30000 kPa, m1 = 0.869): 943.9 ± 1.2 kg/m3 | mass density (398.15 K, 30000 kPa, m1 = 2.465): 925.7 ± 1.2 kg/m3 | mass density (398.15 K, 40000 kPa, m1 = 0.869): 948 ± 1.2 kg/m3 | mass density (398.15 K, 40000 kPa, m1 = 2.465): 930.1 ± 1.2 kg/m3 | mass density (410.72 K, 3923 kPa, m1 = 56.35): 771.4 ± 0.9 kg/m3 | mass density (410.72 K, 10787 kPa, m1 = 56.35): 780.5 ± 1 kg/m3 | mass density (423.15 K, 5000 kPa, m1 = 0.869): 909.2 ± 1.1 kg/m3 | mass density (423.15 K, 5000 kPa, m1 = 2.465): 888.1 ± 1.1 kg/m3 | mass density (423.15 K, 10000 kPa, m1 = 0.869): 912.1 ± 1.1 kg/m3 | mass density (423.15 K, 10000 kPa, m1 = 2.465): 891.4 ± 1.1 kg/m3 | mass density (423.15 K, 20000 kPa, m1 = 0.869): 917.6 ± 1.1 kg/m3 | mass density (423.15 K, 20000 kPa, m1 = 2.465): 897.5 ± 1.1 kg/m3 | mass density (423.15 K, 30000 kPa, m1 = 0.869): 922.6 ± 1.2 kg/m3 | mass density (423.15 K, 30000 kPa, m1 = 2.465): 903.1 ± 1.1 kg/m3 | mass density (423.15 K, 40000 kPa, m1 = 0.869): 927 ± 1.2 kg/m3 | mass density (423.15 K, 40000 kPa, m1 = 2.465): 908 ± 1.2 kg/m3 | mass density (423.61 K, 3432 kPa, m1 = 14.38): 797.3 ± 1 kg/m3 | mass density (423.61 K, 6453 kPa, m1 = 14.38): 800.5 ± 1 kg/m3 | mass density (423.61 K, 10042 kPa, m1 = 14.38): 804.1 ± 1 kg/m3 | mass density (423.61 K, 12827 kPa, m1 = 14.38): 806.4 ± 1 kg/m3 | mass density (426.33 K, 3668 kPa, m1 = 2.531): 880.3 ± 1.1 kg/m3 | mass density (426.33 K, 6865 kPa, m1 = 2.531): 882.1 ± 1.1 kg/m3 | mass density (426.33 K, 10787 kPa, m1 = 2.531): 884.4 ± 1.1 kg/m3 | mass density (427.06 K, 4001 kPa, m1 = 7.407): 834.6 ± 1 kg/m3 | mass density (427.06 K, 6453 kPa, m1 = 7.407): 836.9 ± 1 kg/m3 | mass density (427.06 K, 10375 kPa, m1 = 7.407): 839.8 ± 1 kg/m3 | mass density (448.15 K, 5000 kPa, m1 = 0.869): 883 ± 1.1 kg/m3 | mass density (448.15 K, 5000 kPa, m1 = 2.465): 860.5 ± 1.1 kg/m3 | mass density (448.15 K, 10000 kPa, m1 = 0.869): 886.4 ± 1.1 kg/m3 | mass density (448.15 K, 10000 kPa, m1 = 2.465): 864.4 ± 1.1 kg/m3 | mass density (448.15 K, 20000 kPa, m1 = 0.869): 892.7 ± 1.1 kg/m3 | mass density (448.15 K, 20000 kPa, m1 = 2.465): 871.5 ± 1.1 kg/m3 | mass density (448.15 K, 30000 kPa, m1 = 0.869): 898.3 ± 1.2 kg/m3 | mass density (448.15 K, 30000 kPa, m1 = 2.465): 877.9 ± 1.1 kg/m3 | mass density (448.15 K, 40000 kPa, m1 = 0.869): 903.2 ± 1.2 kg/m3 | mass density (448.15 K, 40000 kPa, m1 = 2.465): 883.5 ± 1.2 kg/m3 | mass density (457.85 K, 3589 kPa, m1 = 14.38): 754.1 ± 0.9 kg/m3 | mass density (457.85 K, 8198 kPa, m1 = 14.38): 760.4 ± 0.9 kg/m3 | mass density (457.85 K, 13141 kPa, m1 = 14.38): 766.1 ± 1 kg/m3 | mass density (463.81 K, 4805 kPa, m1 = 7.407): 790.8 ± 1 kg/m3 | mass density (463.81 K, 7355 kPa, m1 = 7.407): 793.5 ± 1 kg/m3 | mass density (463.81 K, 10787 kPa, m1 = 7.407): 796.8 ± 1 kg/m3 | mass density (472.74 K, 3668 kPa, m1 = 2.531): 826.7 ± 1 kg/m3 | mass density (472.74 K, 6531 kPa, m1 = 2.531): 829.7 ± 1 kg/m3 | mass density (472.74 K, 10297 kPa, m1 = 2.531): 832.6 ± 1 kg/m3 | mass density (486.26 K, 7512 kPa, m1 = 56.35): 668.9 ± 0.8 kg/m3 | mass density (486.26 K, 11278 kPa, m1 = 56.35): 680.2 ± 0.9 kg/m3 | mass density (500.33 K, 4982 kPa, m1 = 2.531): 790 ± 1 kg/m3 | mass density (500.33 K, 7100 kPa, m1 = 2.531): 792.6 ± 1 kg/m3 | mass density (500.33 K, 9316 kPa, m1 = 2.531): 794.5 ± 1 kg/m3 | mass density (501.66 K, 4491 kPa, m1 = 14.38): 685 ± 0.9 kg/m3 | mass density (501.66 K, 6943 kPa, m1 = 14.38): 691.7 ± 0.9 kg/m3 | mass density (501.66 K, 10415 kPa, m1 = 14.38): 699.7 ± 0.9 kg/m3 | mass density (501.66 K, 14298 kPa, m1 = 14.38): 706.5 ± 0.9 kg/m3 | mass density (504.03 K, 4805 kPa, m1 = 7.407): 730.7 ± 0.9 kg/m3 | mass density (504.03 K, 7669 kPa, m1 = 7.407): 735.5 ± 0.9 kg/m3 | mass density (504.03 K, 9807 kPa, m1 = 7.407): 739.6 ± 0.9 kg/m3 | mass density (504.03 K, 10866 kPa, m1 = 7.407): 741.9 ± 0.9 kg/m3 | mass density (536.99 K, 10160 kPa, m1 = 56.35): 558.4 ± 0.7 kg/m3 | mass density (536.99 K, 11140 kPa, m1 = 56.35): 566.4 ± 0.9 kg/m3 | mass density (536.99 K, 11591 kPa, m1 = 56.35): 573.2 ± 1.7 kg/m3 | mass density (537.32 K, 9885 kPa, m1 = 14.38): 619.3 ± 0.8 kg/m3 | mass density (537.32 K, 10611 kPa, m1 = 14.38): 628.3 ± 0.8 kg/m3 | mass density (537.32 K, 14298 kPa, m1 = 14.38): 642.1 ± 0.8 kg/m3 | mass density (538.96 K, 7433 kPa, m1 = 2.531): 728.6 ± 0.9 kg/m3 | mass density (538.96 K, 8649 kPa, m1 = 2.531): 731.3 ± 0.9 kg/m3 | mass density (538.96 K, 11023 kPa, m1 = 2.531): 736.1 ± 0.9 kg/m3 | mass density (543.97 K, 7335 kPa, m1 = 7.407): 653.7 ± 0.8 kg/m3 | mass density (543.97 K, 10532 kPa, m1 = 7.407): 666.5 ± 0.9 kg/m3 | mass density (543.97 K, 12749 kPa, m1 = 7.407): 673.5 ± 0.9 kg/m3 | mass density (574.64 K, 11886 kPa, m1 = 56.35): 322.1 ± 1 kg/m3 | mass density (574.64 K, 13082 kPa, m1 = 56.35): 409.5 ± 1 kg/m3 | mass density (574.64 K, 14004 kPa, m1 = 56.35): 441.1 ± 0.8 kg/m3 | mass density (574.64 K, 14509 kPa, m1 = 56.35): 456.5 ± 0.7 kg/m3 | mass density (574.64 K, 15043 kPa, m1 = 56.35): 468 ± 0.7 kg/m3 | mass density (575.95 K, 11768 kPa, m1 = 14.38): 437.4 ± 3.9 kg/m3 | mass density (575.95 K, 11886 kPa, m1 = 14.38): 475.9 ± 4 kg/m3 | mass density (575.95 K, 13317 kPa, m1 = 14.38): 509.3 ± 0.7 kg/m3 | mass density (575.95 K, 13729 kPa, m1 = 14.38): 521.1 ± 0.8 kg/m3 | mass density (577.86 K, 11717 kPa, m1 = 2.531): 643.6 ± 2.2 kg/m3 | mass density (577.86 K, 11768 kPa, m1 = 2.531): 652.5 ± 2.2 kg/m3 | mass density (577.86 K, 12160 kPa, m1 = 2.531): 656.7 ± 0.9 kg/m3 | mass density (582.08 K, 12239 kPa, m1 = 7.407): 540 ± 0.8 kg/m3 | mass density (582.08 K, 12866 kPa, m1 = 7.407): 557.8 ± 0.8 kg/m3 | mass density (582.08 K, 13670 kPa, m1 = 7.407): 567.6 ± 0.8 kg/m3 | mass density (582.08 K, 14377 kPa, m1 = 7.407): 576.7 ± 0.8 kg/m3
